{"source": "patent US11851697B2", "about": "“Ex vivo protease activity detection for disease detection/diagnostic, staging, monitoring and treatment” (Glympse Bio, Inc., priority 2020, dated 2023)", "key": {"[1]": {"test_system": "proteases in NASH and healthy plasma cleaving Probe #102", "assay": "Inhibitor profiling of Probe #102 cleavage in NASH and healthy plasma", "assay_type": "biochemical, mice", "experimental": "For this experiment, all plasma samples were prepared individually and diluted 1/10e in PBS with inhibitor added directly to the samples. Inhibitor was prepared at 15× concentration to final. Substrates were diluted in DI water at 18 uM, such that the final concentration on the plate would be 6 uM. All samples were prepared such that their last dilution on the plate would not affect the desired final concentration. 10 ul of each individual sample was pipetted into their corresponding wells, and the plate was then spun down in the centrifuge at 1500 RPM for 30 seconds to coat the bottom of each well with the sample. 5 ul of the 18 uM substrate solution was pipetted into each well being used on a 384 well plate, and then the plate was spun down in the centrifuge at 1500 rpm for 30 seconds. The plate was placed immediately in the plate reader at 37° C. for a 30-minute-long fluorescence kinetic read at 485/535 extended gain.\nTo assess the proteolytic cleavage pattern of Probe #102, samples were tested using a pool of broad inhibitors for serine, cysteine, threonine, MMP and aspartic protease family members (broad inhibitor) to assess general protease activity, AEBSF for serine proteases, E64 for cysteine proteases, CTSi for broad cathepsin inhibition of cathepsins L, S, K and B, or specific inhibitors for cathepsin K (L00625), for cathepsin L (SID) or cathepsin B (CA074)."}, "[2]": {"settings": "cited from earlier work"}, "[3]": {"test_system": "caspase activity in hepatitis", "assay": "Ex vivo probe cleavage in plasma of Jo2 fulminant hepatitis mice", "assay_type": "biochemical", "settings": "mouse plasma 3 hours after Jo2 injection vs healthy", "experimental": "Fulminant hepatitis is induced after injection intraperitoneal of monoclonal antibody anti-CD95 (Jo2, BD biosciences, 4 ug/animal), and mouse plasma samples were collected 3 hours after Jo2 injection."}, "COVID-related proteases": {"test_system": "COVID-related proteases", "assay": "Ex vivo probe cleavage in COVID vs healthy K2EDTA and Lithium Heparin plasma", "assay_type": "biochemical"}, "[4]": {"test_system": "cathepsin and/or MMP protease activities", "assay": "Ex vivo probe cleavage in plasma of healthy, NASH regression and NASH progression mice", "assay_type": "biochemical", "settings": "K2EDTA plasma collected at 20 weeks", "description": "Plasma samples were collected from all animals at 20 weeks.\nThe probes showing the most differentiation in NASH were linked to cathepsin and/or MMP protease activities."}, "[5]": {"settings": "both K2EDTA and Lithium Heparin plasma sets"}}, "note": "Square brackets hold non-standard residues; d marks the D form. Primed or numbered codes have the meaning given here. Ends that are not written are not given here. CPQ2(3) = quencher on Lys side chain; FAM = fluorescent reporter; PEG2″ = PEG2 spacer; CPQ2 = quencher", "data": [{"molecule": "NCCc1ccc(S(=O)(=O)F)cc1", "note": "[AEBSF]", "values": [{"measurement": "decrease of NASH signal", "setting": "[1]; NASH plasma, Probe #102", "value": 65, "unit": "%"}, {"measurement": "decrease of healthy signal", "setting": "[1]; healthy plasma, Probe #102", "value": 60, "unit": "%"}]}, {"molecule": "CCCNC(=O)[C@H]1O[C@@H]1C(=O)N[C@H](C(=O)N1CCC[C@H]1C(=O)O)[C@@H](C)CC", "note": "[CA074]", "values": [{"measurement": "effect on signal for NASH or healthy samples", "setting": "[1]; Probe #102", "value": "did not significantly decrease signal"}]}, {"molecule": "O=c1[nH]c(-c2ccccc2O)nc2ccccc12", "note": "[HPQ, 2-(2″-hydroxyphenyl)-4(3H)-quinazolinone]", "values": [{"measurement": "solubility in water", "setting": "[2]", "value": "strictly insoluble in water"}]}, {"molecule": "O=c1nc(-c2cc(C(=C(c3ccccc3)c3ccccc3)c3ccccc3)ccc2O)[nH]c2ccc(Cl)cc12", "note": "[HTPQ]", "values": [{"measurement": "solubility in water", "setting": "[2]", "value": "strictly insoluble in water"}]}, {"molecule": "CC(C)C[C@H](NC(=O)[C@H]1O[C@@H]1C(=O)O)C(=O)NCCCCN=C(N)N", "note": "[Probe E64, E64]", "values": [{"measurement": "effect on NASH signal", "setting": "[1]; NASH plasma, Probe #102, less decrease in signal for healthy", "value": "decreased NASH signal significantly"}]}, {"molecule": "CN1CCN(c2nc(-c3ccc(C(=O)NC4(C(=O)NCC#N)CCCCC4)cc3)cs2)CC1", "note": "[Probe L006235]", "values": [{"measurement": "effect on signal for NASH or healthy samples", "setting": "[1]; Probe #102", "value": "did not significantly decrease signal"}]}, {"molecule": "Probe #8: Caspase centric probe (GVDVADGK; not fully specified; 5-FAM, CPQ2 quencher, PEG2; MOD_RES (8)..(8) Lys modified with a CPQ2 quencher)", "values": [{"measurement": "contrast in Jo2 hepatitis model", "setting": "[3]", "value": "show contrast that is specific and sensitive to the Jo2 model"}]}, {"molecule": "Probe #12: Caspase centric probe (GDEVDGK; not fully specified; 5-FAM, CPQ2 quencher, PEG2; MOD_RES (7)..(7) Lys modified with a CPQ2 quencher)", "values": [{"measurement": "contrast in Jo2 hepatitis model", "setting": "[3]", "value": "show contrast that is specific and sensitive to the Jo2 model"}]}, {"molecule": "Probe #18: a Neutrophil elastase substrate (GAAPVGK(CPQ2); not fully specified (N-terminus, C-terminus); also: 5-FAM (place not given here), PEG2-kk-GC (place not given here))", "values": [{"measurement": "differential cleavage between COVID and healthy samples", "setting": "COVID-related proteases; [5]", "value": "demonstrated contrast in both sets"}]}, {"molecule": "Probe #84: a Furin substrate (GRVKRGLAGK(CPQ2); not fully specified (N-terminus, C-terminus); also: 5-FAM (place not given here), PEG2-kk-GC (place not given here))", "values": [{"measurement": "differential cleavage between COVID and healthy samples", "setting": "COVID-related proteases; [5]", "value": "demonstrated contrast in both sets"}]}, {"molecule": "Probe #96: probe of Table 1 ({FAM}-GRPLALWESQGK(CPQ2)[PEG2″][dK]GC; not fully specified; printed as (FAM)-GRPLALWESQG-K(CPQ2)-PEG2-k-GC; also: FAM, position not given here)", "values": [{"measurement": "differentiation among healthy, regression and NASH samples", "setting": "[4]", "value": "can differentiate"}]}, {"molecule": "Probe #102: a CTSL sensing probe; sequence in Table 1 ({FAM}-GKPILFFRLKGK(CPQ2(3))[PEG2″][dK][dK]GC; not fully specified; printed as (FAM)-GKPILFFRLKG-K(CPQ2)-PEG2-kk-GC)", "values": [{"measurement": "differentiation among healthy, regression and NASH samples", "setting": "[4]", "value": "can differentiate"}, {"measurement": "protease to which the probe responds", "setting": "[1]; individual cathepsin inhibitors, FIG. 30D-F", "value": "specifically responds to the activity of cathepsin L (CTSL)"}]}, {"molecule": "Probe #409: the SARS CoV2 coronavirus substrate (SARS-COV2 3C protease) (GTSAVLQSGFRKGK(CPQ2); not fully specified (N-terminus, C-terminus); also: 5-FAM (place not given here), PEG2-kk-GC (place not given here))", "values": [{"measurement": "differential cleavage between COVID and healthy samples", "setting": "COVID-related proteases; K2 EDTA samples", "value": "modest contrast"}]}, {"molecule": "Probe #428: probe of Table 1 ({FAM}-GDRRKKLTQGK(CPQ2(3))[PEG2″][dK][dK]GC; not fully specified; printed as (FAM)-GDRRKKLTQG-K(CPQ2)-(PEG2)-DLys-DLys-GC)", "values": [{"measurement": "differentiation among healthy, regression and NASH samples", "setting": "[4]", "value": "can differentiate"}]}, {"molecule": "Probe #462: a MMP8 substrate (GKKAKRNALGK(CPQ2); not fully specified (N-terminus, C-terminus); also: FAM (place not given here), PEG2, DLys-DLys-GC (place not given here))", "values": [{"measurement": "differential cleavage between COVID and healthy samples", "setting": "COVID-related proteases; [5]", "value": "demonstrated contrast in both sets"}]}, {"molecule": "Probe #492: probe of Table 1 ({FAM}-GQRANSIRVTWGK(CPQ2(3))[PEG2″][dK][dK]GC; not fully specified; printed as (FAM)-GQRANSIRVTWG-K(CPQ2)-(PEG2)-DLys-DLys-GC)", "values": [{"measurement": "differentiation among healthy, regression and NASH samples", "setting": "[4]", "value": "can differentiate"}]}, {"molecule": "Probe #520: probe of Table 1 (GKPISLISSGK; not fully specified; 5FAM, CPQ2 quencher, PEG2; MOD_RES (11)..(11) Lys modified with a CPQ2 quencher)", "values": [{"measurement": "differentiation among healthy, regression and NASH samples", "setting": "[4]", "value": "can differentiate"}]}]}
